Test results taken from ChEMBL document CHEMBL1201862, “PubChem BioAssay data set” (2004).
Activity calls are given as the source filed them.

Columns and labels:
[1] = HEp-2 cell cytotoxicity, dose response, cytotoxicity control for RSV inhibitor project, HTS (AID 2410); format: functional; details: human respiratory syncytial virus
[2] = molecular target: FAD-linked sulfhydryl oxidase ALR (Homo sapiens, UniProt P55789); test: inhibitors of human ALR sulfhydryl oxidase, dose response, biochemical, H2O2 detection, luminescence, cherry-pick (AID 493248)
Sequence of FAD-linked sulfhydryl oxidase ALR (P55789 whole entry): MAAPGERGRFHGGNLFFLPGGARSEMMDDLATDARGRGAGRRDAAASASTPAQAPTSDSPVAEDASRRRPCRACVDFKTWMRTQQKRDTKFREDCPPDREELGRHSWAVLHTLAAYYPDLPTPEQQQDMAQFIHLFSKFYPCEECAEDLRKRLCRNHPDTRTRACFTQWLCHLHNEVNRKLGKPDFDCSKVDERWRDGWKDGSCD

[3] = Luminescence Cell-Based Dose Response HTS to Identify Inhibitors of 5'UTR Stem-Loop Driven Prion Protein mRNA Translation in H4 Neuroglioblastoma Cells. [Related pubchem assays: 1827 (Project Summary), 1813 (Primary HTS)]; format: functional
[4] = inhibitors of firefly luciferase expression or activity, dose response, H4 neuroglioma cells, luminescence (AID 1990); format: functional, cell-based
[5] = inhibitors of SNCA 5'UTR-driven reporter translation, confirmation, H4 neuroglioma cells, luminescence (AID 1988); format: functional, cell-based
H9c2 = test: cells; format: functional, cell-based; details: Rattus norvegicus, H9c2, Myocardium;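 note: confirmatory concentration-response retest of ultra-high-throughput screening hits for modulation of myocardial damage; cell death induced by hydrogen peroxide oxidative stress; compound pretreatment for 60 min then peroxide exposure for 2 h; potency is for protecting the cells against peroxide damage rather than for killing them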
Cytochrome P450 2C19 = Cytochrome P450 2C19 (Homo sapiens, UniProt P33261); test: Cytochrome panel assay with activity outcomes. Panel member name: p450-cyp2c19 Compounds with AC50 equal or less than 10 uM are considered active; format: functional; details: read-out: AC50
Sequence of Cytochrome P450 2C19 (P33261 whole entry): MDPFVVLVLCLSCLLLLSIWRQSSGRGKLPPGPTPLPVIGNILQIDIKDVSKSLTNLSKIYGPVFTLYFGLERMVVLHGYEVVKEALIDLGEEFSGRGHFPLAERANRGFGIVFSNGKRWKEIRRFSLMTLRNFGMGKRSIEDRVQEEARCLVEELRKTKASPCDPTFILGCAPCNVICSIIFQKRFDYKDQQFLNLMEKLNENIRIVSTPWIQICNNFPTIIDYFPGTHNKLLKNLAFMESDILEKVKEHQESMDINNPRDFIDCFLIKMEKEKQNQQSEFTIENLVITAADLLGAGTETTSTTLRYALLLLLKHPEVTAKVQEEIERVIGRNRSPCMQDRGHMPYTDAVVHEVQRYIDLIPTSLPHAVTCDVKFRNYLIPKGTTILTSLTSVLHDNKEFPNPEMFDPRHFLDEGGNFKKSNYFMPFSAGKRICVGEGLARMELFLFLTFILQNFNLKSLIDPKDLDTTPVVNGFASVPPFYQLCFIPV

Cytochrome P450 1A2 = molecular target: T1, Cytochrome P450 1A2 (Homo sapiens, UniProt P05177);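 note: PubChem cytochrome P450 panel assay, CYP1A2 panel member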
T1 sequence (P05177 whole entry): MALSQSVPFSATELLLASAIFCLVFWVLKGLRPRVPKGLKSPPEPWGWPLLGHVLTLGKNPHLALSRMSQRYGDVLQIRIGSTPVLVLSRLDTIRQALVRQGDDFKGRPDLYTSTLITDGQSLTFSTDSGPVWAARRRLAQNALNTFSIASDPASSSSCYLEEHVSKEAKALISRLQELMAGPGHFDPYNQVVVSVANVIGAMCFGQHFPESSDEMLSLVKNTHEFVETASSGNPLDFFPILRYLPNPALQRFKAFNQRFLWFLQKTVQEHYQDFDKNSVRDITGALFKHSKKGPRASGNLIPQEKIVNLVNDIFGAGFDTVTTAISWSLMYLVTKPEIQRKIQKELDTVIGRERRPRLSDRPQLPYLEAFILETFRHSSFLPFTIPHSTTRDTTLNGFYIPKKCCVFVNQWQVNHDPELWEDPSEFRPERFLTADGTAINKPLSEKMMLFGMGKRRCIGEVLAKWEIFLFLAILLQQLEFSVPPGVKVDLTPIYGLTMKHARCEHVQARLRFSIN

Cytochrome P450 2D6 = Cytochrome P450 2D6 (Homo sapiens, UniProt P10635);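 note: CYP2D6 member of a cytochrome P450 panel assay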
Sequence of Cytochrome P450 2D6 (P10635 whole entry): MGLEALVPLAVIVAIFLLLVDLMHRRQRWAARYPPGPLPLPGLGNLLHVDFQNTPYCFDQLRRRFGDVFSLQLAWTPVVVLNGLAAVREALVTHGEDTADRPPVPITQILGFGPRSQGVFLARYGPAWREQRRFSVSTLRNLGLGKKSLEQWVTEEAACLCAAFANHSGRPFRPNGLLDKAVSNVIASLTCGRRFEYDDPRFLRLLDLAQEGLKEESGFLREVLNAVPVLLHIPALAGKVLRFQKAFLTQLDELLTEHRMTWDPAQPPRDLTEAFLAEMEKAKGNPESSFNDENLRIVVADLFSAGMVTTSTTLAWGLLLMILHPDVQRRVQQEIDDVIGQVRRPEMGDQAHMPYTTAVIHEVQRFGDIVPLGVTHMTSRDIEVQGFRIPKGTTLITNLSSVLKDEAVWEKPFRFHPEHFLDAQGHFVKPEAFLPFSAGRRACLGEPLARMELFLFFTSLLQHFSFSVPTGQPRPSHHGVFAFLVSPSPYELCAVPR

Cytochrome P450 3A4 = Cytochrome P450 3A4 (Homo sapiens, UniProt P08684);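 note: CYP3A4 tested as one member of a cytochrome P450 panel screen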
Sequence of Cytochrome P450 3A4 (P08684 whole entry): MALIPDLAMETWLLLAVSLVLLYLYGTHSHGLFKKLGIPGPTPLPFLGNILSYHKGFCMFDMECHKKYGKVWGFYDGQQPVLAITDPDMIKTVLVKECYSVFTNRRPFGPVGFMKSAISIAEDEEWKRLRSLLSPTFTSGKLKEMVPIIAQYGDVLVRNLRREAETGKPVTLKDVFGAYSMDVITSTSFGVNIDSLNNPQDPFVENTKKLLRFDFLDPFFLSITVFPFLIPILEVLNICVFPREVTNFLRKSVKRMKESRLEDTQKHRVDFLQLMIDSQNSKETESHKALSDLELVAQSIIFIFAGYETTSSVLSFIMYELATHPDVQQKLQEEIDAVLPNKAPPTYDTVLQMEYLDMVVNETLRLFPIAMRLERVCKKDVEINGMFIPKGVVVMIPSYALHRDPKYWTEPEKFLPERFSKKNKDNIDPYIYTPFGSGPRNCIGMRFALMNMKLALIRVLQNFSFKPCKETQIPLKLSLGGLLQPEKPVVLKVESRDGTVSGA

Cytochrome P450 2C9 = Cytochrome P450 2C9 (Homo sapiens, UniProt P11712)
Sequence of Cytochrome P450 2C9 (P11712 whole entry): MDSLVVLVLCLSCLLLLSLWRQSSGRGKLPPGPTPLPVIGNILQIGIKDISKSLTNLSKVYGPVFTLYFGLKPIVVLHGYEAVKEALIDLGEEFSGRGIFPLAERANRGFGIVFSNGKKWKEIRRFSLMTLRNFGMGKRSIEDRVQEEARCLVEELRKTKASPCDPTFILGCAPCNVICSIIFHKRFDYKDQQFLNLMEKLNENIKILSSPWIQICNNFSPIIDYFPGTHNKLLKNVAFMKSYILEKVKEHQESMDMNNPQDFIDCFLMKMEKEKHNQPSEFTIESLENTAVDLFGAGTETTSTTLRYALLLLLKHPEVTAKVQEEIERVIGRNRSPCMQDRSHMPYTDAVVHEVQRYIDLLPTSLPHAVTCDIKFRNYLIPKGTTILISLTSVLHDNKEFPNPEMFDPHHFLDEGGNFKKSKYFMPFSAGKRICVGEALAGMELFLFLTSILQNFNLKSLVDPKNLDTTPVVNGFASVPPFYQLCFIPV

[6] = molecular target: T2, Corticotropin-releasing factor receptor 2/Corticotropin-releasing factor-binding protein (Homo sapiens, UniProt P24387+Q13324); test: activators of CRF receptor 2 with binding protein – uHTS hits, confirmation (AID 602473); format: functional; details: read-out: EC50_Mean
T2 sequence (Q13324 whole entry): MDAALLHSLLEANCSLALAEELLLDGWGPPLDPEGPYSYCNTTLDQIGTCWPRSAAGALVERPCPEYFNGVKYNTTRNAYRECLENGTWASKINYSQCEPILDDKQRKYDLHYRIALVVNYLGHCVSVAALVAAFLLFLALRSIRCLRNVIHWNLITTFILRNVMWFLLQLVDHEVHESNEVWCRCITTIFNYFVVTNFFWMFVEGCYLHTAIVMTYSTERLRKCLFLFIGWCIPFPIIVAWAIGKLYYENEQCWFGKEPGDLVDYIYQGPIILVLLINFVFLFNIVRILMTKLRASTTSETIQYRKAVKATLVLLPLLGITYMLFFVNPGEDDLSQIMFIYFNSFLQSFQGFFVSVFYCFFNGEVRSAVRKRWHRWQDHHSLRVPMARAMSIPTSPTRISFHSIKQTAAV
T2 sequence (P24387 whole entry): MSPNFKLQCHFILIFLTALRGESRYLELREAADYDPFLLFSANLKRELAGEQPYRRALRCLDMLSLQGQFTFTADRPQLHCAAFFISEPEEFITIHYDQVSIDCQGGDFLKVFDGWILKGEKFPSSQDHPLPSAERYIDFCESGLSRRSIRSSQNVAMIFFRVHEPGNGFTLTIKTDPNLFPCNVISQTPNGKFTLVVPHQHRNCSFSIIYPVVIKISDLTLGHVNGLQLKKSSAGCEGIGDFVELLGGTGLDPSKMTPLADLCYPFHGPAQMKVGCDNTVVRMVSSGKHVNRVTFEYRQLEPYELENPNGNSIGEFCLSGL

[7] = cytotoxicity toward NIH3T3 fibroblasts, dose response, counter-screen, cell-based, ATP luminescence, mouse fibroblasts (AID 2010); format: functional;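 note: cells exposed to compound for about 90 hours before reading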
[8] = inhibitors of intracellular T. cruzi replication, confirmation, NIH3T3 host cells, beta-gal luminescence (AID 2044); format: functional, cell-based;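 note: intracellular parasites grown in NIH/3T3 mouse fibroblasts as host cells; luminescent beta-galactosidase reporter signal from transgenic T. cruzi replicating inside host cells; inhibitors lower the luminescence signal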

C=CCOc1ccc(/C=N/NC(=O)c2cc3c(OC)cc(OC)cc3[nH]2)cc1
CC50 [1]: 27.4 µM (active)

O=C(NCCSc1c[nH]c2ccccc12)C1CC1
AC50 [2]: 8.01 µM (active)

O=S(=O)(NNc1ccc(F)cc1F)c1cccc(Cl)c1
AC50 [2]: 1.35 µM (active)

CN(C)Cc1ccccc1Sc1ccc2c(c1)CCCC2
EC50 [3]: 32.4 µM (active)
EC50 [4]: > 120 µM (not active)
EC50 [5]: > 120 µM (not active)

CCN(CC)C(=O)CSc1nc(O)c2ccccc2n1
IC50 (H9c2): > 79 µM (inactive)

Cc1cc(OCC(=O)N2CCOCC2)cc2oc(=O)c3ccccc3c12
IC50 (H9c2): > 79 µM (inactive)

CC(C)(C)OC(=O)CNC(=O)c1[nH]cnc1C(=O)NC(c1ccccc1)c1ccccc1
IC50 (H9c2): > 79 µM (inactive)

O=C(c1ccc(F)cc1)C1CCN(C(S)=Nc2ccccc2)CC1
AC50 (Cytochrome P450 2C19): 7.08 µM (inconclusive)
AC50 (Cytochrome P450 1A2): 12.6 µM (inconclusive)
AC50 (Cytochrome P450 2D6): 14.1 µM (inconclusive)

CCN(CC(=O)Nc1ccc(OC)cc1)C(=O)c1cc(-c2cccs2)nn1-c1ccccc1
IC50 (H9c2): 36.6 µM (inactive)

Cc1cccc(C(=O)O)c1C[C@H]1NCC[C@H]2c3ccccc3N[C@@H]12
AC50 (Cytochrome P450 1A2): 0.0631 µM (inconclusive)

CC(=O)OCc1nc(O)c2c(C)c(C)sc2n1
IC50 (H9c2): > 79 µM (inactive)

Cc1cccc2c(=O)cc(C)n(CC(N)=O)c12
CC50 [1]: 24.6 µM (active)

O=c1ccc(NS(=O)(=O)c2ccc(Cl)cc2)cn1Cc1ccc(Cl)c(Cl)c1
AC50 (Cytochrome P450 1A2): 28.2 µM (inconclusive)

CCNc1ncc2nc(-c3ccccc3)c(=O)n(CCc3ccccc3)c2n1
AC50 (Cytochrome P450 3A4): 15.8 µM (inconclusive)
AC50 (Cytochrome P450 2C9): 1.26 µM (inconclusive)
AC50 (Cytochrome P450 1A2): 12.6 µM (inconclusive)

N[C@@H](CCCP(=O)(O)O)C(=O)O
AC50 (Cytochrome P450 1A2): 31.6 µM (inconclusive)

COC(=O)[C@@]1(Cc2ccc(F)cc2)[C@H]2c3cc(C(=O)N(C)C)n(C)c3C[C@H]2CN1C(=O)c1ccccc1
AC50 (Cytochrome P450 2C19): 25.1 µM (inconclusive)
AC50 (Cytochrome P450 1A2): 31.6 µM (inconclusive)

Cc1ccc(/N=C2\C(Cl)=C(O)OC2OC(C)C)c(C)c1 (centres undefined)
EC50 [3]: 24.8 µM (active)
EC50 [4]: > 120 µM (not active)
EC50 [5]: > 120 µM (not active)

FC(F)(F)c1cccc(-c2ccn3ncnc3n2)c1
CC50 [1]: 35.5 µM (active)

O=C(Nc1ccccc1)c1ccc(-c2ccc(Br)cc2)o1
CC50 [1]: 16.9 µM (active)

COc1ccc(-n2c(=O)c(CCc3ccccc3)nc3cncnc32)cc1
AC50 (Cytochrome P450 2C9): 20 µM (inconclusive)
AC50 (Cytochrome P450 1A2): 25.1 µM (inconclusive)

C(=C\c1nnc2c3ccccc3ncn12)/c1ccccc1
EC50 [3]: 7.36 µM (active)

COc1ccc(C(=O)[C@H]2[C@H]3C(=O)N(c4ccccc4)C(=O)[C@H]3C3C=CC=NN32)cc1 (some centres undefined)
EC50 [3]: > 120 µM (not active)
EC50 [4]: > 120 µM (not active)
EC50 [5]: > 120 µM (not active)

Brc1ccccc1OCCCOc1cccc2cccnc12
CC50 [1]: 26.3 µM (active)

O=C(C[N+]1=C2SC=C(c3ccccc3)N2CC1)c1ccc(Br)cc1
AC50 [2]: 0.221 µM (active)

CN1CCN(/N=C/c2nc(-c3cccc([N+](=O)[O-])c3)n3ccccc23)CC1
EC50 [6]: > 53 µM (inactive)

COc1ccccc1NC(=O)Nc1ncccc1C
AC50 [2]: 0.903 µM (active)

CCCCNC(=O)c1onc(CSc2ccc(C)c(C)c2)c1C(=O)O
AC50 [2]: 8.26 µM (active)

CCCC(=O)NC(Nc1ccccc1F)C(Cl)(Cl)Cl (centres undefined)
AC50 (Cytochrome P450 3A4): 14.1 µM (inconclusive)
AC50 (Cytochrome P450 1A2): 22.4 µM (inconclusive)

O=c1[nH]nc(Cc2ccccc2)c2ccccc12
IC50 (H9c2): > 79 µM (inactive)

Cc1cccc(N2CCN(C(=O)CCCn3c(=S)[nH]c4cc5c(cc4c3=O)OCO5)CC2)c1C
CC50 [1]: 23.4 µM (active)
EC50 [7]: > 30 µM (not active)
EC50 [8]: 0.389 µM (active)
AC50 (Cytochrome P450 2D6): 10 µM (inconclusive)

COc1cc(-c2cc3nc(NCCc4ccc(S(N)(=O)=O)cc4)ccn3n2)cc(OC)c1OC
IC50 (H9c2): > 79 µM (inactive)

Cc1nnc(NC(=O)c2cccc(NC(=O)C(C)C)c2)s1
AC50 (Cytochrome P450 2C9): 25.1 µM (inconclusive)
AC50 (Cytochrome P450 1A2): 39.8 µM (inconclusive)

CCC(C)c1ccc(NC(S)=NCCn2cc(Br)cn2)cc1 (centres undefined)
EC50 [3]: > 120 µM (not active)
EC50 [4]: > 120 µM (not active)
EC50 [5]: > 120 µM (not active)

O=S(=O)(c1ccc(Br)cc1)N1CCC(c2nc3ccccc3[nH]2)CC1
EC50 [4]: 11.9 µM (active)
EC50 [5]: > 120 µM (not active)

CCN(CC)C(=O)c1ccc(O)c(OC)c1
AC50 (Cytochrome P450 1A2): 12.6 µM (inconclusive)

CCc1c(C)nc(Nc2nc(C)c3ccc(OC)cc3n2)nc1O
IC50 (H9c2): > 79 µM (inactive)

Brc1ccc(CN2CCN(c3ccccc3)CC2)o1
AC50 [2]: 2.03 µM (active)

COc1cc(/C=C/c2n[nH]c(-c3ccccc3O)n2)cc(OC)c1OC
IC50 (H9c2): > 79 µM (inactive)

COc1ccc(-c2c(-c3ccsc3)oc(=O)c3cc(OC)c(OC)cc23)cc1
CC50 [1]: 47.2 µM (active)

CN(C)c1cc(=O)n2c(n1)SCCC2
AC50 (Cytochrome P450 2C19): 28.2 µM (inconclusive)
AC50 (Cytochrome P450 1A2): 12.6 µM (inconclusive)

CN(C(=O)COC(=O)c1c2c(nc3ccccc13)/C(=C/c1cccc([N+](=O)[O-])c1)CCC2)C1CCS(=O)(=O)C1 (centres undefined)
EC50 [3]: > 120 µM (not active)
EC50 [4]: 11.6 µM (active)
EC50 [5]: 11 µM (active)

Cc1cc(C)nc(SCc2cccc(C(=O)O)c2)n1
EC50 [4]: 17.5 µM (active)
EC50 [5]: 28.8 µM (active)

CN(C(=O)CSc1nc(O)c2c(n1)CCCC2)C1CCCCC1
IC50 (H9c2): 33.3 µM (inactive)

CC1(c2ccccc2)NC(=O)N(CC(=O)Nc2cccc(/C=C/c3ccccn3)c2)C1=O (centres undefined)
IC50 (H9c2): > 79 µM (inactive)

Cc1ccc2nc(NC(=O)[C@H](C)N3C(=O)C4CC=CCC4C3=O)sc2c1 (some centres undefined)
EC50 [3]: > 120 µM (not active)
EC50 [4]: 0.556 µM (inconclusive)

COc1ccc2cc3cc(C(=O)Nc4cc(OC)c(OC)c(OC)c4)oc3nc2c1
IC50 (H9c2): > 79 µM (inactive)

CCOc1ccc(-n2ccnc2SCC(=O)Nc2nnc(CC)s2)cc1
AC50 (Cytochrome P450 1A2): 20 µM (inconclusive)

CCOc1ccc(C2C=C(c3ccc(C)cc3)Nc3nnnn32)cc1 (centres undefined)
EC50 [6]: > 53 µM (inactive)

C[C@@H]1CCCC(CC(=O)O)(CC(=O)O)C1
AC50 (Cytochrome P450 1A2): 0.631 µM (inconclusive)

Cc1cc(/C=N/NC(=O)c2c(Br)cnn2C)c(C)n1-c1cccc(Br)c1
CC50 [1]: 41.5 µM (active)

COc1ccc(CCNS(=O)(=O)c2cn(C)cn2)cc1OC
EC50 [3]: > 120 µM (not active)
EC50 [4]: > 120 µM (not active)
EC50 [5]: > 120 µM (not active)

CCC1Nc2ncnc(N3CCN(c4ccccc4)CC3)c2N(Cc2ccc(Cl)cc2)C1=O (centres undefined)
CC50 [1]: 16.6 µM (active)
